Measurements reported in patent US8183005B1, “Pharmaceutical agents for treating HCV infections” (priority 2004, dated 2012).
Where two headings read alike, the source gives them in different places.

What was measured:
in vitro = format: cell-based; conditions: human
Method: Firefly luciferase HCV replicon cells (Huh-3-1) suspended in Dulbecco's MEM (Gibco Cat. No. 10569) containing 5% fetal bovine serum (Hyclone Cat. No. SH30071.03) were plated onto a 96-well plate at 5000 cells/well, and cultured overnight under 5% CO2 at 37° C. Approximately 20 hours later, fumonisin B1 was added to a final concentration of 1.37 μM to 1000 μM by carrying out a sequential three-fold dilution, and the cells were then cultured for three more days. The assay was carried out by preparing two types of assay plates: one an opaque white plate and the other a transparent plate. After culturing, the white plate was subjected to the Steady-Glo Luciferase Assay System (Promega Cat. No. E2520). More specifically, 100 μL of reagent was added to each well, mixed three to four times using a pipette, and then stood for five minutes before luminescence was measured using 1450 MicroBeta TRILUX (WALLAC). IC50 (50% inhibitory concentration) of a pharmaceutical agent was calculated by subtracting the value obtained without adding the cells as the background value from all of the values, and then defining the level of inhibition without addition of the pharmaceutical agent as 0%. A Cell Counting Kit-8 (DOJINDO Laboratories, Cat. No. 341-07761) was used for the cytotoxicity assays. 10 μL of reagent was added to each well, mixed three to four times using a pipette, and then stood for approximately 30 minutes; measurements were performed when OD450 nm reached approximately 1.0. IC50 (50% inhibitory concentration) of a pharmaceutical agent was calculated by subtracting the value obtained without adding the cells as the background value from all of the values, and then defining the level of inhibition without addition of the pharmaceutical agent as 0%.
Based on the results of Example 5, the following method was used to measure the effect on cytotoxicity and HCV replicon activity under conditions in which Huh-3-1 cells show reduced LCB1 expression. More specifically, cells were plated onto a 96-well plate at 3500 cells per well, and cultured overnight under 5% CO2 at 37° C. 1.75 μL of 2 μM siRNA was added to 23.3 μL of ECR buffer (buffer included in the RNAiFect Kit), this was stirred vigorously, and then 0.31 μL of RNAiFect transfection reagent was added. This was stirred gently at room temperature and then allowed to stand for ten minutes. siRNA was added to a final concentration of 35 nM, and this was cultured for four days. The effect on cytotoxicity was determined by adding 10 μL of Cell Counting Kit-8 (DOJINDO Laboratories Cat. No. 341-07761) to the medium, mixing three to four times using a pipette, and then allowing this to stand for one hour at 37° C. Absorbance was then measured at 450 nm using a microplate reader Emax (Molecular Devices). After incubation, the medium was exchanged for fresh medium, and the plate was subjected to the Steady-Glo Luciferase Assay System (Promega Cat. No. E2520). 100 μL of reagent was added to each well, mixed three to four times using a pipette, and then allowed to stand for five minutes. Luminescence was then measured using 1450 MicroBeta TRILUX (WALLAC) to determine the HCV replicon activity. IC50 (50% inhibitory concentration) of a pharmaceutical agent was calculated by subtracting the value obtained without adding the cells as the background value from all of the values, and then defining the level of inhibition without addition of the pharmaceutical agent as 0%.
A Cell Counting Kit-8 (DOJINDO Laboratories, Cat. No. 341-07761) was used for the cytotoxicity assays. More specifically, 10 μL of Cell Counting Kit-8 was added to the transparent plate, and this was warmed at 37° C. for 30 to 60 minutes. Using a 96-well plate reader, absorbance was measured at a wavelength of 450 nm with a reference wavelength of 630 nm. […]

HCV-NS3 protein = experiment: Immunostaining of HCV-NS3 protein in HCV replicon cells; format: cell-based; conditions: 100 nM, 96 hours
Method: HCV replicon cells were treated with 100 nM of the compound represented by formula (II) for 96 hours, and then the cells were fixed in 3.7% formaldehyde. Blocking with 3% BSA was followed by incubation with an NS3 antibody (provided by F. Hoffman-La Roche), and then the washed cells were incubated with a Texas-Red-labeled rabbit IgG (Molecular probe), and analyzed using a fluorescence microscope (FIG. 10).

NS3, NS5A, and NS5B = experiment: Western blotting of NS3, NS5A and NS5B in replicon cells; format: cell-based, HCV; conditions: 100 nM, 48 hours and 96 hours
Method: Replicon cells were treated with 100 nM of the compound represented by formula (II) for the lengths of time indicated in FIG. 11 (48 hours and 96 hours). Western blot analysis was performed using a method similar to that of Example 5.

[1] = system: de novo syntheses of ceramide and sphingomyelin; experiment: De novo syntheses of ceramide and sphingomyelin, [14C]serine labeling; format: cell-based; conditions: HCV replicon cells, 48 hours treatment, [14C]serine three hours
Method: HCV replicon cells were treated for 48 hours with the compound represented by formula (II) at the concentrations indicated in FIG. 13. The cells were then labeled for three hours with [14C]serine. After extraction with chloroform/methanol (1:2, v/v), de novo synthesized ceramide (FIG. 13A) and sphingomyelin (FIG. 13B) were separated by thin layer chromatography.

HCV replication = experiment: Recovery from replication inhibition by C2-ceramide, Western blot; format: cell-based; conditions: C2-ceramide added at the same time, 96 hours
Method: To elucidate whether the inhibitory activity of the compound represented by formula (II) against the HCV replicon is dependent on the sphingolipid biosynthetic pathway, cell-permeable ceramide, C2-ceramide (Sigma, Cat. No. A7191), was added to HCV replicon cells at the same time as the compound represented by formula (II), and these were cultured for 96 hours. These cell extracts were used to perform Western blot analysis using a method similar to that of Example 5.

[2] = system: raft proteins (NS5B, NS5A, caveolin-2); experiment: Effect on raft proteins, sucrose density gradient fractionation, Western blot or ELISA; format: cell-based; conditions: 72 hours
Method: 1 mM of the compound represented by formula (II) was added to the HCV replicon cells, then 72 hours later the cell extract was treated for one hour with a solubilizer, 1% Nonidet P-40 (Nacalai tesque, Cat. No. 252-23). Fractions 1 to 9 were separated by the sucrose density gradient fractionation method, and Western blot analysis was performed using a method similar to that of Example 5. […] Caveolin-2 expression was confirmed using a caveolin-2 antibody (BD Transduction, Cat. No 610684).
1 μM of the compound represented by formula (II) was added to the HCV replicon cells, then 72 hours later the cell extract was treated for one hour with 1% NP-40. Raft proteins (solubilizer-resistant) and non-raft proteins were separated using the sucrose density gradient fractionation method, diluted with PBS, concentrated, and then quantified by ELISA analysis.

In the case of `CCCCCCCC(=O)CCCCCC/C=C/[C@H](C(=O)N[C@@H](Cc1ccc(OCC=C(C)C)cc1)C(=O)O)[C@@](O)(CC(=O)O)C(=O)O` [Compound (40)], the CC50 (in vitro; HCV replicon cells, FIG. 9, read-out: cytotoxicity CC50) is reported as greater than 0.05 µM, the CC50 (in vitro; Huh-3-1 replicon cells, three days, Cell Counting Kit-8, read-out: Cytotoxicity CC50) is reported as greater than 5 µM and the “HCV-NS3 protein around the nucleus (immunostaining)” value (HCV-NS3 protein) is reported as “disappeared”. The “expression levels of NS3, NS5A and NS5B” value (NS3, NS5A, and NS5B) was “reduced”, the “intracellular de novo synthesis of ceramide” value [1] was “inhibited” and the “intracellular de novo synthesis of sphingomyelin” value [1] was “inhibited”. For the same molecule, the “inhibition of HCV replication in presence of C2-ceramide” value (HCV replication) was “suppressed in a manner dependent on C2-ceramide concentration”, the “dissociation of NS5B from the raft” value ([2]; 1 μM, 1% NP-40, ELISA) was “significant dissociation of NS5B from the raft” and the “effect on NS5A and caveolin-2” value ([2]; 1 mM, 1% Nonidet P-40, Western blot) was “could not be confirmed”.
